Test [1] in a line: Inhibition of Porphyromonas gingivalis recombinant CA by CO2 hydration assay.
In another test the target is T1, Carbonic anhydrase (Methanosarcina thermophila, UniProt P40881).
T1 sequence (P40881 whole entry): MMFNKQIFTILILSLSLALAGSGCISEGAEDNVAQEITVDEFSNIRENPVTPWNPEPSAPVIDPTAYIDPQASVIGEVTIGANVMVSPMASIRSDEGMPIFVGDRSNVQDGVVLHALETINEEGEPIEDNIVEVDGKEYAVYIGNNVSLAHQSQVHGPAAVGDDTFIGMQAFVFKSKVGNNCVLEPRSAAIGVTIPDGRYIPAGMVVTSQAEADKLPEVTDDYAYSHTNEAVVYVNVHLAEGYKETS
Briefly: Inhibition of Methanosarcina thermophila recombinant gamma-CA by CO2 hydration assay.

`CCN(CC)C(=S)S` [DITIOCARB SODIUM]: the Ki in test [1] came to 0.004 mM.

With `O=[As](O)(O)c1ccccc1` [PHENYLARSONIC ACID], in test [1], the Ki was 0.09 mM. Turning to `OB(O)c1ccccc1` [PHENYLBORONIC ACID], the Ki in test [1] is 0.0098 mM. In the case of `[N-]=[N+]=[N-]` [SODIUM AZIDE], the Ki in test [1] stood at 0.073 mM. With `O=C([O-])O.[Na+]` [SODIUM BICARBONATE], the figures for the Ki (in test [1]; at Carbonic anhydrase) were 0.96 mM and 42 mM, respectively. In the case of `O=S([O-])O.[Na+]` [SODIUM BISULFITE], the results for the Ki (in test [1]; at Carbonic anhydrase) were 9.3 mM and 11.7 mM, respectively. The like results for `[Br-].[Na+]` [SODIUM BROMIDE] were, in that order, 0.92 mM and 60 mM. For the compound `O=C([O-])[O-].[Na+].[Na+]` [SODIUM CARBONATE], the Ki in test [1] was determined as 0.89 mM; on Carbonic anhydrase it was 6.7 mM. With `S=C(S)S` [SODIUM CARBONOTRITHIOATE], the Ki in test [1] is 0.097 mM. With `[Cl-].[Na+]` [SODIUM CHLORIDE], the Ki was 0.94 mM in test [1] and more than 200 mM at Carbonic anhydrase.

Turning to `[F-].[Na+]` [SODIUM FLUORIDE], the Ki in test [1] is 0.95 mM. The same measure, in the same setting: then `S` [SODIUM HYDROSULFIDE], with 0.092 mM. In the case of `O=S(=O)(O)ONOS(=O)(=O)O` [SODIUM IMINODISULFATE], in test [1], the Ki worked out at 7.7 mM. In the case of `[I-].[Na+]` [SODIUM IODIDE], the Ki in test [1] was found to be 8.7 mM; at Carbonic anhydrase, 160 mM. Turning to `N=C=[Se]` [SODIUM ISOSELENOCYANATE], the Ki in test [1] turned out to be 0.91 mM. `N=C=S` [SODIUM ISOTHIOCYANATE]: the Ki in test [1] amounted to 0.093 mM; at Carbonic anhydrase, 7 mM. Consider `O=[N+]([O-])[O-].[Na+]` [SODIUM NITRATE], for which the Ki in test [1] was 8.5 mM; on Carbonic anhydrase, 36.5 mM.

On to `O=NO` [SODIUM NITRITE], for which, in test [1], the Ki is 3.1 mM. Same read-out and setting: then `[O-][Cl+3]([O-])([O-])O` [SODIUM PERCHLORATE], with more than 200 mM; and `O=S(=O)(O)OOS(=O)(=O)O` [SODIUM PERSULFATE], with 8.7 mM. For `O=[Se](=O)(O)O` [SODIUM SELENATE], the Ki in test [1] came out at 85.5 mM.

`O=S(=O)([O-])[O-].[Na+].[Na+]` [SODIUM SULFATE ANHYDROUS]: the Ki was 8.7 mM in test [1] and more than 200 mM on Carbonic anhydrase. Consider `O=[Te](=O)(O)O` [SODIUM TELLURATE], for which the Ki in test [1] is 16.7 mM. For `O=BOB(O)OB(O)OB=O` [SODIUM TETRABORATE], the Ki in test [1] came out at 71.6 mM. For the compound `F[B-](F)(F)F.[Na+]` [SODIUM TETRAFLUOROBORATE], the Ki in test [1] is more than 200 mM. The same measure, in the same setting: next, `NS(=O)(=O)O` [SULFAMATE]: 0.093 mM; `NS(N)(=O)=O` [SULFAMIDE]: 0.0092 mM.

Usually Ki stands for the equilibrium dissociation constant of an inhibitor or competing ligand from its target.

(Values after ChEMBL document CHEMBL2401680, “A highly catalytically active γ-carbonic anhydrase from the pathogenic anaerobe Porphyromonas gingivalis and its inhibition profile with anions and small molecules” (Bioorg Med Chem Lett, 2013).)
